In PubChem BioAssay (NCI):
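Method: 48-hour compound exposure of cells in 96-well plates, five concentrations, linear interpolation of endpoints. The concentration for 50% growth inhibition is given as GI50. TGI: concentration producing complete growth inhibition.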

Key:
Test in all cases: NCI-60 cell line screen, 48 h
786-0 renal = test system: 786-0 renal
A549 NSCLC = test system: A549 NSCLC
ACHN renal = test system: ACHN renal
BT-549 breast = test system: BT-549 breast
CAKI-1 renal = test system: CAKI-1 renal
CCRF-CEM leukemia = test system: CCRF-CEM leukemia
COLO 205 colon = test system: COLO 205 colon
DU-145 prostate = test system: DU-145 prostate
EKVX NSCLC = test system: EKVX NSCLC
HCC-2998 colon = test system: HCC-2998 colon
HCT-116 colon = test system: HCT-116 colon
HCT-15 colon = test system: HCT-15 colon
HL-60(TB) leukemia = test system: HL-60(TB) leukemia
HOP-62 NSCLC = test system: HOP-62 NSCLC
HOP-92 NSCLC = test system: HOP-92 NSCLC
HS 578T breast = test system: HS 578T breast
HT29 colon = test system: HT29 colon
IGROV1 ovarian = test system: IGROV1 ovarian
K-562 leukemia = test system: K-562 leukemia
KM12 colon = test system: KM12 colon
LOX IMVI melanoma = test system: LOX IMVI melanoma
M14 melanoma = test system: M14 melanoma
MALME-3M melanoma = test system: MALME-3M melanoma
MCF7 breast = test system: MCF7 breast
MDA-MB-231 breast = test system: MDA-MB-231 breast
MOLT-4 leukemia = test system: MOLT-4 leukemia
NCI-H226 lung = test system: NCI-H226 lung
NCI-H23 lung = test system: NCI-H23 lung
NCI-H460 lung = test system: NCI-H460 lung
NCI-H522 lung = test system: NCI-H522 lung
NCI/ADR-RES ovarian = test system: NCI/ADR-RES ovarian
OVCAR-3 ovarian = test system: OVCAR-3 ovarian
OVCAR-4 ovarian = test system: OVCAR-4 ovarian
OVCAR-5 ovarian = test system: OVCAR-5 ovarian
OVCAR-8 ovarian = test system: OVCAR-8 ovarian
PC-3 prostate = test system: PC-3 prostate
RPMI-8226 leukemia = test system: RPMI-8226 leukemia
RXF 393 renal = test system: RXF 393 renal
SF-268 CNS = test system: SF-268 CNS
SF-295 CNS = test system: SF-295 CNS
SF-539 CNS = test system: SF-539 CNS
SK-MEL-2 melanoma = test system: SK-MEL-2 melanoma
SK-MEL-28 melanoma = test system: SK-MEL-28 melanoma
SK-MEL-5 melanoma = test system: SK-MEL-5 melanoma
SK-OV-3 ovarian = test system: SK-OV-3 ovarian
SN12C renal = test system: SN12C renal
SNB-19 CNS = test system: SNB-19 CNS
SNB-75 CNS = test system: SNB-75 CNS
SR leukemia = test system: SR leukemia
SW-620 colon = test system: SW-620 colon
T-47D breast = test system: T-47D breast
TK-10 renal = test system: TK-10 renal
U251 CNS = test system: U251 CNS
UACC-257 melanoma = test system: UACC-257 melanoma
UACC-62 melanoma = test system: UACC-62 melanoma
UO-31 renal = test system: UO-31 renal

For `Nc1nccc2c1ncn2C1OC(CO)C(O)C1O` (configuration not stated), the GI50 (786-0 renal) was > 100 µM, the TGI (786-0 renal) was > 100 µM and the GI50 (A549 NSCLC) was > 100 µM. The TGI (A549 NSCLC) was > 100 µM, the GI50 (ACHN renal) was > 100 µM and the TGI (ACHN renal) was > 100 µM. The GI50 (BT-549 breast) was 88.8 µM, the TGI (BT-549 breast) was > 100 µM and the GI50 (CAKI-1 renal) was > 100 µM. The TGI (CAKI-1 renal) was > 100 µM, the GI50 (CCRF-CEM leukemia) was > 100 µM and the TGI (CCRF-CEM leukemia) was > 100 µM. The GI50 (COLO 205 colon) was > 100 µM, the TGI (COLO 205 colon) was > 100 µM and the GI50 (DU-145 prostate) was > 100 µM. For the same compound, the TGI (DU-145 prostate) was > 100 µM, the GI50 (EKVX NSCLC) was > 100 µM and the TGI (EKVX NSCLC) was > 100 µM. For the same compound, the GI50 (HCC-2998 colon) was > 100 µM, the TGI (HCC-2998 colon) was > 100 µM and the GI50 (HCT-116 colon) was 39.2 µM. The TGI (HCT-116 colon) was > 100 µM, the GI50 (HCT-15 colon) was 75.8 µM and the TGI (HCT-15 colon) was > 100 µM. The GI50 (HL-60(TB) leukemia) was > 100 µM, the TGI (HL-60(TB) leukemia) was > 100 µM and the GI50 (HOP-62 NSCLC) was > 100 µM. For the same compound, the TGI (HOP-62 NSCLC) was > 100 µM, the GI50 (HOP-92 NSCLC) was 92.2 µM and the TGI (HOP-92 NSCLC) was > 100 µM. For the same compound, the GI50 (HS 578T breast) was > 100 µM, the TGI (HS 578T breast) was > 100 µM and the GI50 (HT29 colon) was > 100 µM. The TGI (HT29 colon) was > 100 µM, the GI50 (IGROV1 ovarian) was 44.7 µM and the TGI (IGROV1 ovarian) was > 100 µM. The GI50 (K-562 leukemia) was > 100 µM, the TGI (K-562 leukemia) was > 100 µM and the GI50 (KM12 colon) was 54.5 µM. For the same compound, the TGI (KM12 colon) was > 100 µM, the GI50 (LOX IMVI melanoma) was 94.1 µM and the TGI (LOX IMVI melanoma) was > 100 µM. The GI50 (M14 melanoma) was > 100 µM, the TGI (M14 melanoma) was > 100 µM and the GI50 (MALME-3M melanoma) was > 100 µM. For the same compound, the TGI (MALME-3M melanoma) was > 100 µM, the GI50 (MCF7 breast) was 52 µM and the TGI (MCF7 breast) was > 100 µM. The GI50 (MDA-MB-231 breast) was > 100 µM, the TGI (MDA-MB-231 breast) was > 100 µM and the GI50 (MOLT-4 leukemia) was > 100 µM. The TGI (MOLT-4 leukemia) was > 100 µM, the GI50 (NCI-H226 lung) was > 100 µM and the TGI (NCI-H226 lung) was > 100 µM. For the same compound, the GI50 (NCI-H23 lung) was > 100 µM, the TGI (NCI-H23 lung) was > 100 µM and the GI50 (NCI-H460 lung) was 73.8 µM. The TGI (NCI-H460 lung) was > 100 µM, the GI50 (NCI-H522 lung) was > 100 µM and the TGI (NCI-H522 lung) was > 100 µM. The GI50 (NCI/ADR-RES ovarian) was > 100 µM, the TGI (NCI/ADR-RES ovarian) was > 100 µM and the GI50 (OVCAR-3 ovarian) was > 100 µM. The TGI (OVCAR-3 ovarian) was > 100 µM, the GI50 (OVCAR-4 ovarian) was > 100 µM and the TGI (OVCAR-4 ovarian) was > 100 µM. The GI50 (OVCAR-5 ovarian) was > 100 µM, the TGI (OVCAR-5 ovarian) was > 100 µM and the GI50 (OVCAR-8 ovarian) was 91.5 µM. For the same compound, the TGI (OVCAR-8 ovarian) was > 100 µM, the GI50 (PC-3 prostate) was > 100 µM and the TGI (PC-3 prostate) was > 100 µM. For the same compound, the GI50 (RPMI-8226 leukemia) was > 100 µM, the TGI (RPMI-8226 leukemia) was > 100 µM and the GI50 (RXF 393 renal) was 48.5 µM. For the same compound, the TGI (RXF 393 renal) was > 100 µM, the GI50 (SF-268 CNS) was 83.4 µM and the TGI (SF-268 CNS) was > 100 µM. For the same compound, the GI50 (SF-295 CNS) was > 100 µM, the TGI (SF-295 CNS) was > 100 µM and the GI50 (SF-539 CNS) was > 100 µM. The TGI (SF-539 CNS) was > 100 µM, the GI50 (SK-MEL-2 melanoma) was > 100 µM and the TGI (SK-MEL-2 melanoma) was > 100 µM. For the same compound, the GI50 (SK-MEL-28 melanoma) was > 100 µM, the TGI (SK-MEL-28 melanoma) was > 100 µM and the GI50 (SK-MEL-5 melanoma) was > 100 µM. For the same compound, the TGI (SK-MEL-5 melanoma) was > 100 µM, the GI50 (SK-OV-3 ovarian) was > 100 µM and the TGI (SK-OV-3 ovarian) was > 100 µM. For the same compound, the GI50 (SN12C renal) was 89.3 µM, the TGI (SN12C renal) was > 100 µM and the GI50 (SNB-19 CNS) was > 100 µM. The TGI (SNB-19 CNS) was > 100 µM, the GI50 (SNB-75 CNS) was > 100 µM and the TGI (SNB-75 CNS) was > 100 µM. The GI50 (SR leukemia) was 41.6 µM, the TGI (SR leukemia) was > 100 µM and the GI50 (SW-620 colon) was 92.4 µM. The TGI (SW-620 colon) was > 100 µM, the GI50 (T-47D breast) was > 100 µM and the TGI (T-47D breast) was > 100 µM. The GI50 (TK-10 renal) was > 100 µM, the TGI (TK-10 renal) was > 100 µM and the GI50 (U251 CNS) was > 100 µM. The TGI (U251 CNS) was > 100 µM, the GI50 (UACC-257 melanoma) was > 100 µM and the TGI (UACC-257 melanoma) was > 100 µM. The GI50 (UACC-62 melanoma) was > 100 µM, the TGI (UACC-62 melanoma) was > 100 µM and the GI50 (UO-31 renal) was 28.8 µM. For the same compound, the TGI (UO-31 renal) was > 100 µM.
